In ChEMBL document CHEMBL5104164, “Design, synthesis, and biological evaluation of pyrrolopyrimidine derivatives as novel Bruton's tyrosine kinase (BTK) inhibitors” (Eur J Med Chem, 2022):

Assays:
[1] = tested on: TMD8; assay: Antiproliferative activity against human TMD8 cells incubated for 72 hrs by CellTiter-Glo assay; conditions: TMD8, 72 h
[2] = Oral bioavailability in male BALB/c mouse; format: ADME, organism-based; conditions: in vivo
[3] = AUC (0 to infinity) in male BALB/c mouse at 10 mg/kg, po; format: ADME, organism-based; set-up: time infinity, dose 10 mg/kg, route po; conditions: in vivo
[4] = Apparent volume of distribution in male BALB/c mouse at 2 mg/kg, iv; format: ADME, organism-based; conditions: in vivo, read-out: Vz
[5] = Cmax in male BALB/c mouse at 2 mg/kg, iv; format: ADME, organism-based; set-up: dose 2 mg/kg, route iv; conditions: in vivo
[6] = Tmax in male BALB/c mouse at 2 mg/kg, iv; format: ADME, organism-based; conditions: in vivo
[7] = AUC (0 to t) in male BALB/c mouse at 10 mg/kg, po; format: ADME, organism-based; set-up: dose 10 mg/kg, route po; conditions: in vivo
[8] = Half-life in male BALB/c mouse at 2 mg/kg, iv; format: ADME, organism-based; conditions: in vivo
[9] = AUC (0 to t) in male BALB/c mouse at 2 mg/kg, iv; format: ADME, organism-based; set-up: dose 2 mg/kg, route iv; conditions: in vivo
[10] = AUC (0 to infinity) in male BALB/c mouse at 2 mg/kg, iv; format: ADME, organism-based; set-up: time infinity, dose 2 mg/kg, route iv; conditions: in vivo
[11] = Tmax in male BALB/c mouse at 10 mg/kg, po; format: ADME, organism-based; conditions: in vivo
[12] = Half-life in male BALB/c mouse at 10 mg/kg, po; format: ADME, organism-based; conditions: in vivo
[13] = target: Tyrosine-protein kinase BTK (Homo sapiens, UniProt Q06187); assay: Inhibition of BTK (unknown origin) measured by ADP-Glo assay
[14] = Cmax in male BALB/c mouse at 10 mg/kg, po; format: ADME, organism-based; set-up: dose 10 mg/kg, route po; conditions: in vivo
[15] = Clearance in male BALB/c mouse at 2 mg/kg, iv; format: ADME, organism-based; conditions: in vivo
[16] = species: Homo sapiens; assay: Selectivity ratio for inhibition of BTK (unknown origin) over EGFR (unknown origin)

Tyrosine-protein kinase BTK, sequence (Q06187 whole entry): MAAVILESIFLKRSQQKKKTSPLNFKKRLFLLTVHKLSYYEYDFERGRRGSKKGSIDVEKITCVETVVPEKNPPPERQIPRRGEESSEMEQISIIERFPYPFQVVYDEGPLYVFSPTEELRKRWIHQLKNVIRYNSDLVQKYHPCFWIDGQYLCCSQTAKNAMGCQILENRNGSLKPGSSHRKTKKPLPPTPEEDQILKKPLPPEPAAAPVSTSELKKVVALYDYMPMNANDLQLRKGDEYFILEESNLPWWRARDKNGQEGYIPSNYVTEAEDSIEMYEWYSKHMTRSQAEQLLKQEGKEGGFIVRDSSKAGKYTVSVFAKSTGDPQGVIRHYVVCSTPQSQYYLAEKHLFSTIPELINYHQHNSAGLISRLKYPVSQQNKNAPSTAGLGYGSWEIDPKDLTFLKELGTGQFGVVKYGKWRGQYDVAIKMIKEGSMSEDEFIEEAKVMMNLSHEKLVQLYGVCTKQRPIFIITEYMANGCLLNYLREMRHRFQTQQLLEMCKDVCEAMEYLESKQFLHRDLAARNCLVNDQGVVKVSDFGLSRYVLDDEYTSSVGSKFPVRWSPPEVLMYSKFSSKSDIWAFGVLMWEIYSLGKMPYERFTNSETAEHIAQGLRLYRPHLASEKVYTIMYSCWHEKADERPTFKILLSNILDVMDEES

SMILES	IC50 [1]	IC50 [13]	also measured
C=CC(=O)N1CCC(CNc2ncnc3[nH]cc(C(=O)N4CC(Oc5cccc(F)c5)C4)c23)CC1	9.2 nM	0.4 nM	bioavailability [2]: 2.58%; AUC(0-inf) [3]: 75.3 ng·h/mL; Vd [4]: 1.37 L/kg; Cmax [5]: 2230 ng/mL; Tmax [6]: 1.8 min; AUC(0-t) [7]: 69.5 ng·h/mL; half-life [8]: 15.6 min; AUC(0-t) [9]: 539 ng·h/mL; AUC(0-inf) [10]: 541 ng·h/mL; Tmax [11]: 15 min; half-life [12]: 57 min; Cmax [14]: 148 ng/mL; clearance [15]: 61.8 mL/min/kg
C=CC(=O)N1CCC(Nc2ncnc3[nH]cc(C(=O)N4CC(Oc5ccccc5)C4)c23)CC1		593 nM	
C=CC(=O)N1CCC(CNc2ncnc3[nH]cc(C(=O)NCCc4ccccc4)c23)CC1		17.3 nM	
C=CC(=O)N1CC=C(c2c[nH]c3ncnc(-c4ccc(CNC(=O)c5ccc(C6CC6)cc5)c(F)c4)c23)CC1	0.8 nM	1.2 nM	
C=CC(=O)N1CC=C(c2c[nH]c3ncnc(-c4ccc(CNC(=O)c5ccc(C(C)(C)C)cc5)c(F)c4)c23)CC1	3.4 nM	1.3 nM	
CC#CC(=O)N1CCC(Nc2ncnc3[nH]cc(C(=O)N4CC(Oc5ccccc5)C4)c23)C1 (stereo not given)		68.5 nM	
C=CC(=O)N1CCC(CNc2ncnc3[nH]cc(C(=O)N4CC(Oc5cccc6ccccc56)C4)c23)CC1	22.6 nM	0.8 nM	
C=CC(=O)N1CCC(CNc2ncnc3[nH]cc(C(=O)N4CCC(Oc5ccccc5)CC4)c23)CC1		26.2 nM	
CCOc1cc2ncc(C#N)c(Nc3ccc(OCc4ccccn4)c(Cl)c3)c2cc1NC(=O)/C=C/[C@H]1CCCN1C [PYROTINIB]		31.7 nM	
CC#CC(=O)N1CC=C(c2c[nH]c3ncnc(-c4ccc(CNC(=O)Nc5ccccc5)c(F)c4)c23)CC1	7.2 nM	1.4 nM	
CC#CC(=O)N1CCC(CNc2ncnc3[nH]cc(C(=O)N4CC(Oc5ccccc5)C4)c23)CC1		16.4 nM	
C=CC(=O)N1CCCC(Nc2ncnc3[nH]cc(C(=O)N4CC(Oc5ccccc5)C4)c23)C1 (stereo not given)	454 nM	1.9 nM	
C=CC(=O)N1CCC(CNc2ncnc3[nH]cc(C(=O)Nc4ccccc4)c23)CC1		98.7 nM	
C=CC(=O)N1CCC(CNc2ncnc3[nH]cc(C(=O)N4CC(Oc5ccccc5)C4)c23)CC1	24.4 nM	0.6 nM	
C=CC(=O)N1CC=C(c2c[nH]c3ncnc(-c4ccc(CNC(=O)c5ccc(C(C)(C)C)cc5)c(C)c4)c23)CC1		1.34 nM	
CC#CC(=O)NC1CCCN(c2ncnc3[nH]cc(C(=O)N4CC(Oc5ccccc5)C4)c23)C1 (stereo not given)		> 10000 nM	
C=CC(=O)N1CCC(c2c[nH]c3ncnc(-c4ccc(CNC(=O)c5ccc(C(C)(C)C)cc5)cc4)c23)CC1		2.1 nM	
CC#CC(=O)N1CCC(Nc2ncnc3[nH]cc(C(=O)N4CC(Oc5ccccc5)C4)c23)CC1		974 nM	
CC#CC(=O)N1CC=C(c2c[nH]c3ncnc(-c4ccc(CNC(=O)c5ccccc5)c(F)c4)c23)CC1	5.4 nM	1 nM	
CC#CC(=O)N1CCC(c2c[nH]c3ncnc(-c4ccc(CNC(=O)c5ccc(C(C)(C)C)cc5)c(C)c4)c23)CC1		1.4 nM	
C=CC(=O)N1CCC(O)(CNc2ncnc3[nH]cc(C(=O)N4CC(Oc5ccccc5)C4)c23)CC1	320 nM	2.2 nM	
CC#CC(=O)N1CCC(c2c[nH]c3ncnc(-c4ccc(CNC(=O)c5ccc(C(C)(C)C)cc5)cc4)c23)CC1		2.2 nM	
CC#CC(=O)N1CC=C(c2c[nH]c3ncnc(-c4ccc(CNC(=O)c5ccc(C(C)(C)C)cc5)cc4)c23)CC1		11.1 nM	
C=CC(=O)N1CCC(CNc2ncnc3[nH]cc(C(=O)NCCOc4ccccc4)c23)CC1		8.4 nM	

SMILES	IC50 [1]	IC50 [13]	also measured
C=CC(=O)N1CCC(CNc2ncnc3[nH]cc(C(=O)N4CC(Oc5ccc(F)cc5)C4)c23)CC1	84.1 nM	0.7 nM	
C=CC(=O)N1CCC(CNc2ncnc3[nH]cc(C(=O)N4CC(Oc5ccccn5)C4)c23)CC1	38.1 nM	0.8 nM	
C=CC(=O)N1CC=C(c2c[nH]c3ncnc(-c4ccc(CNC(=O)Nc5ccccc5)c(F)c4)c23)CC1	12.1 nM	0.8 nM	
C=CC(=O)NCCNc1ncnc2[nH]cc(C(=O)N3CC(Oc4ccccc4)C3)c12		92.9 nM	
CC#CC(=O)N1CCC(c2c[nH]c3ncnc(-c4ccc(CNC(=O)c5ccc(C(C)(C)C)cc5)c(F)c4)c23)CC1	1.8 nM	1.2 nM	bioavailability [2]: 0.78%; AUC(0-inf) [3]: 9.57 ng·h/mL; Vd [4]: 34.8 L/kg; Cmax [5]: 2160 ng/mL; Tmax [6]: 1.8 min; AUC(0-t) [7]: 8.94 ng·h/mL; half-life [8]: 167 min; AUC(0-t) [9]: 229 ng·h/mL; AUC(0-inf) [10]: 231 ng·h/mL; Tmax [11]: 4.8 min; half-life [12]: 83.4 min; Cmax [14]: 49.9 ng/mL; clearance [15]: 144 mL/min/kg
C=CC(=O)N1CCC(CNc2ncnc3[nH]cc(C(=O)N4CC(Oc5cccc(C)c5)C4)c23)CC1	15.6 nM	0.5 nM	
CC#CC(=O)N1CC=C(c2c[nH]c3ncnc(-c4ccc(CNC(=O)c5ccc(C6CC6)cc5)c(F)c4)c23)CC1	1.2 nM	1.9 nM	
CC#CC(=O)N1CC=C(c2c[nH]c3ncnc(-c4ccc(CNC(=O)c5ccc(C(C)(C)C)cc5)c(F)c4)c23)CC1	1.7 nM	0.8 nM	
C=CC(=O)N1CCC([C@@H]2CCNc3c(C(N)=O)c(-c4ccc(Oc5ccccc5)cc4)nn32)CC1			Selectivity ratio [16]: 8.7
C=CC(=O)N1CC[C@H](n2nc(C#Cc3cc(OC)cc(OC)c3)c3c(N)ncnc32)C1 [FUTIBATINIB]		94.9 nM	
CC#CC(=O)N1CC=C(c2c[nH]c3ncnc(-c4ccc(CNC(=O)c5ccc(C(C)(C)C)cc5)c(C)c4)c23)CC1	1.7 nM	1.1 nM	
C=CC(=O)N1CCC(c2c[nH]c3ncnc(-c4ccc(CNC(=O)c5ccc(C(C)(C)C)cc5)c(C)c4)c23)CC1	1.5 nM	0.8 nM	
C=CC(=O)N1CCC(CNc2ncnc3[nH]cc(C(=O)NCc4ccccc4)c23)CC1		52.3 nM	
C=CC(=O)N1CCC(CNc2ncnc3[nH]cc(C(=O)N4CC(OCc5ccccc5)C4)c23)CC1	30.7 nM	2 nM	
C=CC(=O)N1CCC(CNc2ncnc3[nH]cc(C(=O)N4CC(Oc5cccc(Cl)c5)C4)c23)CC1	12.9 nM	0.5 nM	bioavailability [2]: 1.82%; AUC(0-inf) [3]: 32.9 ng·h/mL; Vd [4]: 1.52 L/kg; Cmax [5]: 1250 ng/mL; Tmax [6]: 3 min; AUC(0-t) [7]: 32.8 ng·h/mL; half-life [8]: 11.4 min; AUC(0-t) [9]: 359 ng·h/mL; AUC(0-inf) [10]: 541 ng·h/mL; Tmax [11]: 6.6 min; half-life [12]: 23.4 min; Cmax [14]: 48.6 ng/mL; clearance [15]: 92.8 mL/min/kg
C=CC(=O)N1CCC(c2c[nH]c3ncnc(-c4ccc(CNC(=O)c5ccc(C(C)(C)C)cc5)c(F)c4)c23)CC1		1.9 nM	
C=CC(=O)N1CCC(CNc2ncnc(N)c2-c2ccc(Oc3ccccc3)cc2)CC1 [EVOBRUTINIB]	56.2 nM		
C=CC(=O)N1CC=C(c2c[nH]c3ncnc(-c4ccc(CNC(=O)c5ccc(C(C)(C)C)cc5)cc4)c23)CC1		2.5 nM	
C=CC(=O)N1CCC(CNc2ncnc3[nH]cc(C(=O)N4CC(OC(C)C)C4)c23)CC1		23.2 nM	
C=CC(=O)NC1CCCN(c2ncnc3[nH]cc(C(=O)N4CC(Oc5ccccc5)C4)c23)C1 (stereo not given)		5410 nM	
C=CC(=O)N1CCC(Nc2ncnc3[nH]cc(C(=O)N4CC(Oc5ccccc5)C4)c23)C1 (stereo not given)	2530 nM	4.5 nM	
CC#CC(=O)N1CCCC(Nc2ncnc3[nH]cc(C(=O)N4CC(Oc5ccccc5)C4)c23)C1 (stereo not given)		153 nM	
C=CC(=O)N1CCC(CNc2ncnc3[nH]cc(C(=O)N4CC(Oc5cccc(C(F)(F)F)c5)C4)c23)CC1	22.4 nM	1.6 nM	
C=CC(=O)N1CCC(CNc2ncnc3[nH]cc(C(=O)N4CC(Oc5ccc6ccccc6c5)C4)c23)CC1	28 nM	1.4 nM	
